{
  "source": "patent US12208130B2",
  "about": "“Treatment of women affected with polycystic ovary syndrome” (INSTITUT NATIONAL DE LA SANTE ET DE LA RECHERCHE MEDICALE …, priority 2017, dated 2025)",
  "test_system": "PAMH mice",
  "assay": "Postnatal GnRH antagonist treatment in PAMH mice: estrous cyclicity, ovaries, hormone levels",
  "format": "in vivo, mouse",
  "procedure": "FIG. 6A-6G. Postnatal GnRH antagonist treatment of PAMH mice restores the PCOS-like neuroendocrine phenotype. (FIG. 6A) Schematic of experimental design whereby vaginal cytology (estrous cyclicity) in PAMH adult (P60-P90, n=5) was analyzed for 12 days before and after postnatal intraperitoneal (i.p.) injections with 0.5 mg Kg^−1 cetrorelix acetate (PAMH+GnRH antag). Injections were administered every 2 days over 12 days and, on the first diestrus at the end of the treatment, trunk blood was collected for hormonal analysis. (FIG. 6B) Representation of estrous cyclicity of a female PAMH mouse before postnatal GnRH antagonist treatment (no treatment) and during postnatal GnRH antagonist treatment (PAMH+GnRH antag). Days of treatment are denoted by arrows. (FIG. 6C) Quantitative analysis of the % of completed estrous cycles in control (prenatal PBS-treated, n=19), PAMH (prenatal AMH-treated, n=19), and PAMH mice postnatally treated with GnRH antagonist (PAMH+GnRH antag, n=5). The horizontal line in each scatter plot corresponds to the median value. The vertical line represents the 25th-75th percentile range. Comparisons between treatment groups were performed using Kruskal-Wallis test followed by Dunn's post hoc analysis test (control vs PAMH ***P<0.0001; control vs PAMH+GnRH antag, P>0.999; PAMH vs PAMH+GnRH antag, *P=0.015). (FIG. 6D) Scatter plot representing the percentage (%) of time spent in each estrous cycle. The horizontal line in each scatter plot corresponds to the median value. The vertical line represents the 25th-75th percentile range. The percentage (%) of time spent in each estrous cycle was quantified in control, PAMH and PAMH+GnRH antag animals groups, as described above. Comparisons between treatment groups were performed using Kruskal-Wallis test followed by Dunn's post hoc analysis test (M/D: control vs PAMH ***P<0.0001; control vs PAMH+GnRH antag, P>0.999; PAMH vs PAMH+GnRH antag, *P=0.0051; E: control vs PAMH ***P<0.0001; control vs PAMH+GnRH antag, P>0.999; PAMH vs PAMH+GnRH antag, *P=0.014; P: control vs PAMH ***P<0.0001; control vs PAMH+GnRH antag, P>0.999; PAMH vs PAMH+GnRH antag, **P=0.0007). In FIG. 6D, (●): control; light grey point: PAMH; “○”: PAMH+GnRH antagonist. (FIG. 6E) Representative photomicrographs of ovaries from adult (P60-P90) control, PAMH and PAMH+GnRH antag mice. Ovary sections (5 μm thick) were stained with haematoxylin-eosin. (FIG. 6F) Mean T levels were measured in diestrus adult control (n=7), PAMH (n=5) and PAMH+GnRH antag (n=5) animals. Comparisons between treatment groups were performed using One-way ANOVA and Tukey's multiple comparisons post-hoc test, F (2,14)=29.24, ***P<0.0001. (FIG. 6G) Mean LH levels were measured in diestrus adult control (n=9), PAMH (n=10) and PAMH+GnRH antag (n=5) animals. Comparisons between treatment groups were performed using One-way ANOVA and Tukey's multiple comparisons post-hoc test, F(2,21)=65.78, ***P<0.0001. Abbreviations: M/D, Metestrus/Diestrus; E, Estrus; P, Proestrus; A, atretic follicles; CL, corpora lutea; AF, antral follcicles.\n(FIG. 10A) Schematic of experimental design whereby vaginal cytology (estrous cyclicity) in PAMH adult mice (P90, n=6) was analyzed during 3 months, before and after postnatal intraperitoneal (i.p.) injections with 0.05, 0.5 and 5 mg/Kg Cetrorelix acetate. The Y axis refers to the different stages of the estrous cycle: Metaestrus/Diestrus (M/D), Estrus (E) and Proestrus (P). The X axis represents the time-course of the experiments (days). Animals were injected i.p. every second day, for 12 days, with Cetrorelix acetate at the dose of 0.05 and 0.5 mg/Kg, and every day with Cetrorelix acetate at the dose of 5 mg/Kg. Tail-blood samples were collected for LH measurements twice before the beginning of the treatments, and at day 2 and 6 of each treatment as well as 4 days after the last injection (no treatment), that followed each administration period. […]",
  "key": {"[1]": {"settings": "0.5 mg/Kg i.p. every second day for 12 days"}},
  "note": "Where a SMILES comes first, the peptide text is derived from it. [ ]: non-standard residue; d: D form. dPhe(4-Cl) = N[C@H](Cc1ccc(Cl)cc1)C(=O)O; d2Nal = N[C@H](Cc1ccc2ccccc2c1)C(=O)O; dCit = NC(=O)NCCC[C@@H](N)C(=O)O; d3Pal = N[C@H](Cc1cccnc1)C(=O)O",
  "data": [
    {"smiles": "CC(=O)N[C@H](Cc1ccc2ccccc2c1)C(=O)N[C@H](Cc1ccc(Cl)cc1)C(=O)N[C@H](Cc1cccnc1)C(=O)N[C@@H](CO)C(=O)N[C@@H](Cc1ccc(O)cc1)C(=O)N[C@H](CCCNC(N)=O)C(=O)N[C@@H](CC(C)C)C(=O)N[C@@H](CCCNC(=N)N)C(=O)N1CCC[C@H]1C(=O)N[C@H](C)C(N)=O", "note": "[Cetrorelix acetate, Ac-D-2Nal-D-Phe(4-Cl)-D-3Pal-Ser-Tyr-D-Cit-Leu-Arg-Pro-D-Ala-NH2] (Ac-[d2Nal][dPhe(4-Cl)][d3Pal]SY[dCit]LRP[dA]-NH2)", "values": [
      {"measurement": "serum LH levels of PAMH mice", "setting": "0.05 mg/Kg i.p. every second day", "result": "significantly more elevated than in Control animals"},
      {"measurement": "LH pulsatility in PAMH animals", "setting": "0.5 mg/Kg every second day, diestrus, end of treatment", "result": "normalized the LH pulsatility"},
      {"measurement": "LH levels of PAMH mice", "setting": "[1]", "result": "normalized"},
      {"measurement": "estrous cyclicity of PAMH mice", "setting": "[1]", "result": "restored"},
      {"measurement": "T levels of PAMH mice", "setting": "0.5 mg/Kg i.p. every second day for 12 days, diestrus", "result": "normalized"},
      {"measurement": "ovarian morphology of PAMH mice", "setting": "0.5 mg/Kg i.p. every two days for 12 days", "result": "restored"},
      {"measurement": "ovulation in PAMH animals", "setting": "0.5 mg/Kg injected every 48 hours", "result": "restored ovulation"},
      {"measurement": "serum LH levels of PAMH mice", "setting": "5 mg/Kg i.p. daily", "result": "significantly suppressed"},
      {"measurement": "reversibility of effects on LH secretion", "setting": "after discontinuation of treatment, independently of dose", "result": "reversible a few days after discontinuation of treatment"}
    ]}
  ]
}
